Experimental data as given in BindingDB's records for doi:10.1111/cbdd.12241 (Chengde Medical University, 2014).

Target: T1, Glycogen phosphorylase, muscle form (Oryctolagus cuniculus, UniProt P00489)
T1 sequence (P00489 whole entry): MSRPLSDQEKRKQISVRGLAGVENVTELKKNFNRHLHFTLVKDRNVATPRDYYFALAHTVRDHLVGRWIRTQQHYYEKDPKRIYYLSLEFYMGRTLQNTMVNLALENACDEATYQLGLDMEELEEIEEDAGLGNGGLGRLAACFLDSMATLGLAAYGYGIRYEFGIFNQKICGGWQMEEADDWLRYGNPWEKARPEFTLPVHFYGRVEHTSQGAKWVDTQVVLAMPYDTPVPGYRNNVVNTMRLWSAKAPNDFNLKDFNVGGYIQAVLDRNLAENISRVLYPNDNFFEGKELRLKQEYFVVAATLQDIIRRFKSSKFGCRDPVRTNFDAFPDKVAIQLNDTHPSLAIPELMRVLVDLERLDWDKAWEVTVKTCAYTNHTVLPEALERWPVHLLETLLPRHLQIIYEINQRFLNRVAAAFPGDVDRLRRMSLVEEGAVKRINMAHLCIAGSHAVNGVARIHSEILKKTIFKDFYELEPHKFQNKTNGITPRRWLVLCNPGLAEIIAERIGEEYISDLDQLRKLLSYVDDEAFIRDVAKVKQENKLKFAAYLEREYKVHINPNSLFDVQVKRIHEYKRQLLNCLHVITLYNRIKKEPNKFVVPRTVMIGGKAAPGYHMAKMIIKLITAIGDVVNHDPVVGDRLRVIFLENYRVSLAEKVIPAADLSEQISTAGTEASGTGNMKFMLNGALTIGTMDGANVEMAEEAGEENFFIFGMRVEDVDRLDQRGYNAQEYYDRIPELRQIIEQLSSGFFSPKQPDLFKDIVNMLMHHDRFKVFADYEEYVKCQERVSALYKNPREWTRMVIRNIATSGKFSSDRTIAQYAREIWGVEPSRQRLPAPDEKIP
Assay: Inhibition Assay
Details: pH 7.2; 22 °C
Experimental: Each compound was dissolved in DMSO and diluted at different concentrations. RMGPa was added to 100 µL of buffer (50 mM Hepes pH 7.2, 100 mM KCl, 2.5 mM MgCl2, 0.5 mM glucose-1-phosphate, 1 mg/mL glycogen, and compound in 96-well microplates. Reaction was […] by the addition of 150 µL of 1 M HCl containing 10 mg/mL ammonium molybdate and 0.38 mg/mL malachite green and run for 25 min at 22 C.

Compound `CCCCCCCCC(=O)OCc1cn(CC(=O)O[C@H]2CC[C@]3(C)[C@H]4CC=C5[C@@H]6CC(C)(C)CC[C@]6(C(=O)OCc6ccccc6)CC[C@@]5(C)[C@]4(C)CC[C@H]3C2(C)C)nn1` [Benzyl 3b-[2-(4-nonanoyloxymethyl-1H-1,2,3-triazol-1-yl)acetoxy]olean-12-en-28-oate (Compound 7a)] has an IC50 of 80.1 µM.
In the case of `CCCCCCCCCCCCCCCC(=O)OCc1cn(CC(=O)O[C@H]2CC[C@]3(C)[C@H]4CC=C5[C@@H]6CC(C)(C)CC[C@]6(C(=O)O)CC[C@@]5(C)[C@]4(C)CC[C@H]3C2(C)C)nn1` [3b-[2-(4-palmitoyloxymethyl-1H-1,2,3-triazol-1-yl)acetoxy]olean-12-en-28-oic acid (Compound 8d)], the IC50 is reported as 221 µM.
`CCCCCCCCC(=O)OCc1cn(CC(=O)O[C@H]2CC[C@]3(C)[C@H]4CC=C5[C@@H]6CC(C)(C)CC[C@]6(C(=O)O)CC[C@@]5(C)[C@]4(C)CC[C@H]3C2(C)C)nn1` [3b-[2-(4-nonanoyloxymethyl-1H-1,2,3-triazol-1-yl)acetoxy]olean-12-en-28-oic acid (Compound 8a)] showed an IC50 of 77.1 µM.
Work on `CC1(C)CC[C@]2(C(=O)OCc3ccccc3)CC[C@]3(C)C(=CC[C@@H]4[C@@]5(C)CC[C@H](O)C(C)(C)[C@@H]5CC[C@]43C)[C@@H]2C1` [benzyl (4aS,6aS,6bR,8aR,10S,12aR,12bR,14bS)-10-hydroxy-2,2,6a,6b,9,9,12a-heptamethyl-1,3,4,5,6,7,8,8a,10,11,12,12b,13,14b-tetradecahydropicene-4a-carboxylate (Compound 4)] yielded an IC50 of 461 µM.
`CCCCCCCCCCCC(=O)OCc1cn(CC(=O)O[C@H]2CC[C@]3(C)[C@H]4CC=C5[C@@H]6CC(C)(C)CC[C@]6(C(=O)O)CC[C@@]5(C)[C@]4(C)CC[C@H]3C2(C)C)nn1` [3b-[2-(4-dodecanoyloxymethyl-1H-1,2,3-triazol-1-yl)acetoxy]olean-12-en-28-oic acid (Compound 8c)] was tested, and the IC50 was 8.4 µM.
With `COc1ccc(C(=O)OCc2cn(CC(=O)O[C@H]3CC[C@]4(C)[C@H]5CC=C6[C@@H]7CC(C)(C)CC[C@]7(C(=O)OCc7ccccc7)CC[C@@]6(C)[C@]5(C)CC[C@H]4C3(C)C)nn2)cc1` [Benzyl 3b-{2-[4-(4-methoxybenzoyloxy)methyl-1H-1,2,3-triazol-1-yl]acetoxy}olean-12-en-28-oate (Compound 7f)] the IC50 was 38.9 µM.
`CCCCCCCCCC(=O)OCc1cn(CC(=O)O[C@H]2CC[C@]3(C)[C@H]4CC=C5[C@@H]6CC(C)(C)CC[C@]6(C(=O)O)CC[C@@]5(C)[C@]4(C)CC[C@H]3C2(C)C)nn1` [3b-[2-(4-decanoyloxymethyl-1H-1,2,3-triazol-1-yl)acetoxy]olean-12-en-28-oic acid (Compound 8b)] showed an IC50 of 25.6 µM.
`CC1(C)CC[C@]2(C(=O)OCc3ccccc3)CC[C@]3(C)C(=CC[C@@H]4[C@@]5(C)CC[C@H](OC(=O)Cn6cc(COC(=O)Cc7ccc8ccccc8c7)nn6)C(C)(C)[C@@H]5CC[C@]43C)[C@@H]2C1` [Benzyl 3b-{2-[4-(2-naphthalen-2-yl)acetoxymethyl-1H-1,2,3-triazol-1-yl]acetoxy}olean-12-en-28-oate (Compound 7g)] gave an IC50 of 23.9 µM.
`COc1ccc(C(=O)OCc2cn(CC(=O)O[C@H]3CC[C@]4(C)[C@H]5CC=C6[C@@H]7CC(C)(C)CC[C@]7(C(=O)O)CC[C@@]6(C)[C@]5(C)CC[C@H]4C3(C)C)nn2)cc1` [3b-{2-[4-(4-methoxybenzoyloxy)methyl-1H-1,2,3-triazol-1-yl]acetoxy}olean-12-en-28-oic acid (Compound 8f)] showed an IC50 of 34.6 µM.
With `CCCCCCCCCCCCCCCCCC(=O)OCc1cn(CC(=O)O[C@H]2CC[C@]3(C)[C@H]4CC=C5[C@@H]6CC(C)(C)CC[C@]6(C(=O)O)CC[C@@]5(C)[C@]4(C)CC[C@H]3C2(C)C)nn1` [3b-[2-(4-stearoyloxymethyl-1H-1,2,3-triazol-1-yl)acetoxy]olean-12-en-28-oic acid (Compound 8e)] the IC50 was 11.2 µM.
With `CCCCCCCCCC(=O)OCc1cn(CC(=O)O[C@H]2CC[C@]3(C)[C@H]4CC=C5[C@@H]6CC(C)(C)CC[C@]6(C(=O)OCc6ccccc6)CC[C@@]5(C)[C@]4(C)CC[C@H]3C2(C)C)nn1` [Benzyl 3b-[2-(4-decanoyloxymethyl-1H-1,2,3-triazol-1-yl)acetoxy]olean-12-en-28-oate (Compound 7b)] the IC50 was 144 µM.
